Data set [1] deals with HIV-1_91US005. The following applies: HIV-1, human PBMC, p24 ELISA; 95% CI in brackets.
Data set [2] has as its system HIV-1_91US005. The following applies: HIV-1, human PBMC, RT assay, 7 days; 95% CI in brackets.
Data set [3] relates to human PBMCs. In words: Cytotoxicity in PBMC (MTS).
Data set [4] is described as follows: in vitro. The following applies: African green monkey.
Data set [5] concerns SARS-CoV-2. Nature of the data set: microbe, parasite or virus in culture. The data set is classed as cell-based.
In data set [6] the test system is primary human foreskin fibroblasts (HFFs). The arrangement: method as in ref 28 = [28]. The following applies: HFF; reported previously; cited from earlier work.
Another data set concerns HCMV AD169-GFP. Nature of the data set: microbe, parasite or virus in culture. The data set is classed as cell-based, human cytomegalovirus. The following applies: Human betaherpesvirus 5, AD169, 168 h.
A short description of data set [7]: in vitro. The data set is classed as cell-based. The following applies: African green monkey.
A short description of data set [8]: in vitro. The data set is classed as cell-based. The following applies: human.
Another data set concerns Vero cells. The following applies: African green monkey.
Data set [9] concerns SARS-CoV-2. In words: microbe, parasite or virus in culture. It counts as cell-based. The following applies: for reduction in viral yield: Vero 76, 3 days.
The test system of data set [10] is SARS-CoV-2. In words: microbe, parasite or virus in culture. It counts as cell-based. This is another data set of the same source.
For data set [11], the system named is SARS-CoV-2. It counts as cell-based.
A short description of data set [12]: in vitro. The following applies: African green monkey. The source holds these as a separate data set.
Data set [13] concerns the target T1, N-terminally truncated recombinant hDHODH enzyme (Homo sapiens, UniProt Q02127).
T1 construct: using an N-terminally truncated recombinant hDHODH enzyme as described
Nature of the data set: In vitro inhibition of human DHODH. It counts as biochemical.

Data set [14] can be described thus: Neutral Red assay (NRA) cytotoxicity. The following applies: African green monkey.
In data set [15] the test system is HIV-1_91US005. Nature of the data set: microbe, parasite or virus in culture. The following applies: Human immunodeficiency virus 1, PBMC.
Data set [16] relates to human PBMCs. The following applies: 7 days, 100 µM.
The test system of data set [17] is primary human foreskin fibroblasts (HFFs).
The nature of data set [18]: Cytotoxicity in Huh7 replicon cells (CytoTox-1 cell proliferation assay). The following applies: human.
Data set [19] has as its system Huh7 human hepatoma cell line. The description is as above. The following applies: highest concentration (30 µM), Huh7.
For the next data set, the system named is inflammation in the lung. More on the design: method as in ref 57 = [57]. The following applies: mouse model of systemic lupus erythematosus; cited from earlier work.
Data set [20] is described as follows: in vitro. The following applies: human.
Data set [21] can be described thus: in vitro. The following applies: human. The source holds these as a separate data set.
The subject of data set [22] is HCV subgenomic replicon of genotype 1b. In words: HCV subgenomic replicon Luc reporter assay in Huh7. The data set is classed as cell-based. The following applies: Hepatitis C virus, Huh-7, 24 h.
The test system of a further data set is MPO in colonic tissue. The arrangement: method as in ref 57 = [57]. The following applies: murine TNBS-induced colitis model; cited from earlier work.
For data set [23], the system named is HIV-1_91US005. Nature of the data set: microbe, parasite or virus in culture. The following applies: Human immunodeficiency virus 1, PBMC, 168 h.
The mark [24] stands for this setting: Severe acute respiratory syndrome coronavirus 2, RT-qPCR, Vero cells, read-out: Anti-SARS-CoV-2 drug efficacy on Vero cells: EC50.
The mark [25] stands for this setting: Severe acute respiratory syndrome coronavirus 2, Caco-2.

Where a name gives a salt, the structure may show the parent alone. Read-outs that look alike come from different tables or passages of the source.

T1 sequence (Q02127 29-395 limits assumed): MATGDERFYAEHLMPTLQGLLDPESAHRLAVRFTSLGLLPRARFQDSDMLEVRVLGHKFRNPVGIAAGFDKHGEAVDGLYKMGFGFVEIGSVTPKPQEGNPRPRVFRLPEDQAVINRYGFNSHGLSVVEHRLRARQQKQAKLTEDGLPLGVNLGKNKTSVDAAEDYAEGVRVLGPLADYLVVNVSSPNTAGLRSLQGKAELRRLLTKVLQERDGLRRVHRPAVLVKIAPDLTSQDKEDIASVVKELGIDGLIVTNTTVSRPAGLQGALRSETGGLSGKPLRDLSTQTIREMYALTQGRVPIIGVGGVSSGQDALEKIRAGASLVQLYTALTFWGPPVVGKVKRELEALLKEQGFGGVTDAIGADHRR

With `Cc1cn([C@H]2C[C@H](N=[N+]=[N-])[C@@H](CO)O2)c(=O)[nH]c1=O` [AZT, azidothymidine/zidovudine], the EC50 with HIV-1_91US005 [1] turned out to be 0.00027 µM; in the data set on HIV-1_91US005 [2] it was 0.00038 µM. Moreover, the CC50 in the data set with human PBMCs [3] was more than 1 µM.

Turning to `CCN(CC)CCCC(C)Nc1ccnc2cc(Cl)ccc12` (stereo not drawn) [CQ, chloroquine, reference compound], the CC50 in “in vitro [4]” is more than 20 µM. Besides, the EC50 in the data set with SARS-CoV-2 [5] (setting [24]) was found to be 2.7 ± 0.9 µM.

Take `Nc1nc(O)c2ncn(COC(CO)CO)c2n1` [GCV, ganciclovir, reference compound]: in [6], the CC50 was more than 15 µM. In the data set with HCMV AD169-GFP, this compound gave an EC50 of 1.69 ± 0.8 µM.

In the case of `COc1cccc(-c2ccc(NC(=O)C3=C(C(=O)O)CCC3)c(F)c2)c1` [IMU-838, calcium salt of vidofludimus], the CC90 in the data set “in vitro [7]” is more than 100 µM; in “in vitro [8]”, more than 60 µM. Moreover, the CC50 was more than 60 µM in “in vitro [8]”, more than 100 µM in the data set on Vero cells and 88.1 ± 3.7 µM in the data set “in vitro [12]” (CC50). Moreover, the concentration for an effect of 90% (EC90) is 6.2 ± 1.9 µM in the data set with SARS-CoV-2 [9] (Severe acute respiratory syndrome coronavirus 2, Vero 76, 72 h) and 15 to 30 µM in the data set on SARS-CoV-2 [10] (setting [25]). Moreover, the “reduction in viral yield” value in the data set with SARS-CoV-2 [9] (drug alone at 10 µM) is ~ 1.7 fold log unit. In addition, the “reduction of viral plaques” value in the data set on SARS-CoV-2 [10] (30 µM, CaCo-2, 72 h p.i.) is ~ 1.8 log unit. In addition, the EC50 was 7.5 to 15 µM in the data set on SARS-CoV-2 [10] (setting [25]); 10 ± 9 µM in the data set with SARS-CoV-2 [5] (Severe acute respiratory syndrome coronavirus 2, Vero 76, 72 h, read-out: EC50, replicate 3 RT-qPCR); 6.8 µM in the data set with SARS-CoV-2 [5] (Severe acute respiratory syndrome coronavirus 2, Vero, 48 h, read-out: EC50, replicate 1 RT-qPCR); 6 µM in the data set on SARS-CoV-2 [5] (Severe acute respiratory syndrome coronavirus 2, Vero, 72 h, read-out: EC50, replicate 2 RT-qPCR); 7.6 ± 5.8 µM in the data set on SARS-CoV-2 [5] (Severe acute respiratory syndrome coronavirus 2, Vero, read-out: Mean EC50 of replicates 1-3). In the data set with SARS-CoV-2 [11], the “inhibition of viral RNA production (mAb-dsRNA)” value is on record as “concentration-dependent IMU-838-mediated inhibition”. In addition, the “inhibition of viral spike protein production (mAb-S)” value with SARS-CoV-2 [11] is recorded as “concentration-dependent IMU-838-mediated inhibition”. In “in vitro [12]”, the viability at 3 days, 100 µM worked out at 95%.

With `COC(=O)c1c(-c2c(F)cccc2Cl)noc1-c1cnn(-c2cccc(Cl)c2)c1C(F)(F)F` [IMU-CO3], in data set [13], the IC50 turned out to be 0.041 µM. This compound had a CC50 at 3 days in the data set “in vitro [12]” (CC50 values on Vero cells) of more than 100 µM. Further, in the data set with SARS-CoV-2 [5] (setting [24]), the EC50 is 15.5 ± 4.6 µM.

`CCC(CC)COC(=O)[C@H](C)N[P@](=O)(OC[C@H]1O[C@@](C#N)(c2ccc3c(N)ncnn23)[C@H](O)[C@@H]1O)Oc1ccccc1` [RDV, remdesivir]: the CC50 in data set [14] was more than 100 µM; in “in vitro [4]” it was more than 20 µM. Moreover, the “reduction in viral yield” value with SARS-CoV-2 [9] (drug alone at 5 µM) was ~ 3.8 fold log unit; in the data set on SARS-CoV-2 [9] (drug alone at 10 µM), more than 4.0 fold log unit. Besides, the EC50 in the data set with SARS-CoV-2 [5] (setting [24]) came out at 1.7 ± 1 µM.

Take `C/C(O)=C(\C#N)C(=O)Nc1ccc(C(F)(F)F)cc1` [TFNM, teriflunomide]: in the data set with SARS-CoV-2 [9] (Severe acute respiratory syndrome coronavirus 2, 72 h, Vero 76, USA_WA1/2020, MOI 0.002, VYR, 3 days p.i., read-out: EC90), the concentration for an effect of 90% (EC90) is 14 µM.

With `COc1cccc(-c2ccc(NC(=O)C3=C(C(=O)O)CCC3)c(F)c2)c1` [Vido, vidofludimus], the EC50 in the data set with HIV-1_91US005 [15] stood at 1.3 µM; in [22] it was 5.9 µM; in the data set with HIV-1_91US005 [23] it was 2.1 µM; in the data set with HCMV AD169-GFP it was 7.4 ± 0.1 µM. In addition, the “reduction in cell viability” value with human PBMCs [16] came out at 46.8%; in data set [19] it was 34%. Further, the cytotoxicity entry in data set [17] is listed as “absence of detectable cytotoxicity”. The compound also registered a CC50 at 24 h in data set [18] of more than 30 µM. Further, the “inflammation in the lung” value in the data set with inflammation in the lung is “decreased inflammation in the lung”. The same compound showed a CC50 in the data set “in vitro [20]” of more than 100 µM. The CC50 at 7 days in the data set “in vitro [21]” is more than 100 µM. For the same compound, in the data set with MPO in colonic tissue, the “levels of MPO in colonic tissue” value is recorded as “reduced the levels of MPO in colonic tissue”.

(Values after paper PMC7762174 (Viruses, 2020).)
